Results reported in PubChem BioAssay AID1996.
Converted amounts (≈) assume the structure as drawn.

Conditions: buffer; pH 7.4; 200.0 µM

| Structure (SMILES) | solubility kinetic [µg/mL] |
| --- | --- |
| CC1CCCCC1NC(=O)COc1ccccc1C#N (stereo not given) | > 40.9 |
| CC(C)(C)Sc1ccc([N+](=O)[O-])cc1C(=O)Nc1ccncc1 | > 49.7 |
| O=C(CS(=O)(=O)c1ccc(F)cc1)N1CCOCC1 | > 43.1 |
| CC#CC(=O)N1CCCC(C(=O)c2ccc(SC)cc2)C1 (stereo not given) | > 45.2 |
| CC(C)(C)c1ccc(N2C(=N)SCC2=O)cc1 | 15.8 (≈ 63.6 µM) |
| Cc1c(Cl)cccc1NC(=O)C1CC2CCC1C2 (stereo not given) | 1.5 (≈ 5.69 µM) |
| CCOc1ccc(C(C)NC(=O)c2cccs2)cc1OCC (stereo not given) | 11.1 (≈ 34.7 µM) |
| CC(C)S(=O)(=O)C/C(N)=N/OS(=O)(=O)c1ccc(Cl)cc1 | 42.5 (≈ 120 µM) |
| O=C(Nc1nc2ccccc2s1)NC1CCCCC1 | 1.6 (≈ 5.81 µM) |
| COc1ccc(/C=C/C(=O)NCCCNC(=O)/C=C/c2ccc(OC)c(OC)c2)cc1OC | 60 (≈ 132 µM) |
| Cc1ccc(OCC(=O)NC2CCSc3ccccc32)cc1 (stereo not given) | 11.8 (≈ 37.6 µM) |
| CCOc1ccc(C(=O)OC2CCCN(C)C2)cc1.Cl (stereo not given) | > 45 |
| CCOC(=O)C1CCN(C(=S)NC2CC3C=CC2C3)CC1 (stereo not given) | > 46.3 |
| CC(C)c1ccc(OCC(=O)Nc2ccncc2)cc1 | 38.8 (≈ 144 µM) |
| NC(=O)c1cc(S(=O)(=O)NCc2ccccc2)cs1 | > 44.5 |
| Cc1ccccc1OCC(=O)Nc1ccc(N2CCN(C)CC2)c(Cl)c1 | 12.3 (≈ 32.9 µM) |
| O=C(COc1ccc(Cl)cc1)NCCCNC(=O)c1ccccn1 | 50.5 (≈ 145 µM) |
| CC(C)Cc1ccc(S(=O)(=O)NCC2CCCO2)cc1 (stereo not given) | 33.6 (≈ 113 µM) |
| Nc1cc(C(=O)OCC(=O)N2CCOCC2)ccc1Cl | > 44.8 |
| COc1cccc(NC(=O)COC(=O)C2C3CC4OC(=O)C2C4C3)c1 (stereo not given) | 49.5 (≈ 143 µM) |

| Structure (SMILES) | solubility kinetic [µg/mL] |
| --- | --- |
| O=C(CSc1ccccc1Cl)N1CCOCC1 | > 40.8 |
| Cn1c(/C=C/c2ccc(Cl)cc2)nc2ccccc2c1=O | < 0.3 |
| Cn1c(=O)n(C)c2cc(NS(=O)(=O)c3ccccc3)ccc21 | 35.5 (≈ 112 µM) |
| O=C(C1CCCC1)N1CCN(S(=O)(=O)c2cccc(Cl)c2Cl)CC1 | 27.4 (≈ 70 µM) |
| Cc1nc2ccccc2c(=O)n1-c1ccc(-c2ccccc2)cc1 | < 0.3 |
| S=C(NCCCN1CCOCC1)NC1CC1 | > 36.5 |
| COc1ccc(CNC(=O)Cc2cn(C)c3ccccc23)c(OC)c1 | > 50.8 |
| Fc1ccc(F)c(CNc2ncnc3cc(Cl)ccc23)c1 | 1.3 (≈ 4.25 µM) |
| Cc1ccc(CN(Cc2ccco2)C(=S)NCC(=O)NC2CC2)cc1 | 47.2 (≈ 132 µM) |
| CN(CCOc1ccccc1)CC(=O)Nc1cc([N+](=O)[O-])ccc1Cl | 13.7 (≈ 37.7 µM) |
| COCCN(Cc1ccccc1)C(=S)Nc1ccc(Cl)cc1 | 8.6 (≈ 25.7 µM) |
| Cc1ccc(NC2Sc3ccccc3NC2=O)cc1 (stereo not given) | 9.6 (≈ 35.5 µM) |
| Cc1cccc(C(C)C)c1NC(=O)c1ccc(OCC2CCCO2)cc1 (stereo not given) | 12.1 (≈ 34.2 µM) |
| Cc1ccc(OCC(=O)N2CCc3ccccc3C2)c([N+](=O)[O-])n1 | > 49.1 |
| O=S(=O)(c1ccc(NCc2ccc(F)cc2)nc1)N1CCCC1 | 3 (≈ 8.94 µM) |
| COc1ccc(NC(=O)CS(=O)c2ccccc2Cl)cc1 (stereo not given) | > 48.6 |
| Cc1cc(=O)oc2cc(NC(=O)c3ccccc3C(=O)O)ccc12 | > 48.5 |
| Cc1ccc(NC(=O)c2ccc3[nH]c(=O)c(=O)[nH]c3c2)nc1 | 8.7 (≈ 29.4 µM) |
| O=C(COC(=O)c1cc[n+]([O-])cc1)Nc1ccc([N+](=O)[O-])cc1 | > 47.6 |
| Cc1ccc(CSCc2ccc(C(=O)NC3CCCC3)o2)cc1 | 1.9 (≈ 5.77 µM) |

| Structure (SMILES) | solubility kinetic [µg/mL] |
| --- | --- |
| Cc1ccc(NC(=O)c2sc(N)nc2C)cc1 | > 37.1 |
| CCN1CCc2c(OCc3ccc(C)cc3)cccc2C1=O | 18.9 (≈ 64 µM) |
| Cc1cc(C(=O)NC(C)C2CCCO2)c(C)o1 (stereo not given) | > 35.6 |
| CCc1ccccc1NC(=O)C1CCCN(c2ncccn2)C1 (stereo not given) | 8.3 (≈ 26.7 µM) |
| Cc1ccc(C(=O)NC(=S)N2CCCCCC2)cc1 | > 41.5 |
| COc1ccc(OC)c(S(=O)(=O)NC2CC2)c1 | > 38.6 |
| COc1ccc(C(=O)N[C@H](C(=O)NCc2ccc(C)cc2)C(C)C)cc1 | 1.1 (≈ 3.1 µM) |
| CCOP(=O)(c1ccc(N(C)C)cc1)C(O)c1ccncc1 (stereo not given) | > 48 |
| CCN(CC)S(=O)(=O)c1ccc(N2CCOCC2)c(NC(=O)c2ccc(=O)[nH]c2)c1 | > 65.2 |
| O=C(NCCCN1CCCC1=O)Nc1ccc(Cl)cc1Cl | > 49.5 |
| COc1ccc(Cl)cc1C(=O)Nc1ccc(NC(=O)C(C)C)cc1 | 0.5 (≈ 1.44 µM) |
| S=C(NCc1ccncc1)Nc1ccc(Br)cc1 | > 48.3 |
| COc1ccc(CNC(=O)CN2CCN(S(=O)(=O)c3c(C)c(C)cc(C)c3C)CC2)cc1OC | 3.5 (≈ 7.15 µM) |
| CC1CCC(NC(=O)c2cc(Cl)nc3ccccc23)CC1 (stereo not given) | 2.5 (≈ 8.26 µM) |
| Cc1ccc(C)c(N2C(=O)C3C4C=CC(CC4)C3C2=O)c1 (stereo not given) | 14.9 (≈ 53 µM) |
| Cc1ccc(NCc2nc3ccccc3n2C)cc1C | 22.1 (≈ 83.3 µM) |
| O=C(COC(=O)c1ccc(Cl)nc1)NCCc1ccc(Cl)cc1 | 21.4 (≈ 60.6 µM) |
| O=C(CCc1ccccc1)N1CCCC1 | 29.9 (≈ 147 µM) |
| CCN(CC)c1ccc(CNCCc2ccccc2F)cc1.Cl | > 50.5 |
| Cc1ccnc(Nc2nc(-c3ccc(O)cc3)cs2)c1 | 3.9 (≈ 13.8 µM) |
